Measurements reported in patent US12486267B2, “Imidazo[1,2-A]pyridine and [1,2,4]triazolo[1,5-A]pyridine derivatives as TLR9 inhibitors for the treatment of fibrosis” (BRISTOL-MYERS SQUIBB COMPANY, priority 2020, dated 2025).
pIC50: −log10 of the molar value.

Key:
Type in all cases: cell-based
human TLR9 = target: T1, human TLR9 (Homo sapiens, UniProt Q9NR96); assay: TLR9 inhibition reporter assay (HEK-Blue cells, SEAP reporter); details: HEK-Blue cells overexpressing human TLR9; stimulated with ODN2006 5 nM; 22 hour incubation; SEAP readout
T1 sequence (Q9NR96 26-1032): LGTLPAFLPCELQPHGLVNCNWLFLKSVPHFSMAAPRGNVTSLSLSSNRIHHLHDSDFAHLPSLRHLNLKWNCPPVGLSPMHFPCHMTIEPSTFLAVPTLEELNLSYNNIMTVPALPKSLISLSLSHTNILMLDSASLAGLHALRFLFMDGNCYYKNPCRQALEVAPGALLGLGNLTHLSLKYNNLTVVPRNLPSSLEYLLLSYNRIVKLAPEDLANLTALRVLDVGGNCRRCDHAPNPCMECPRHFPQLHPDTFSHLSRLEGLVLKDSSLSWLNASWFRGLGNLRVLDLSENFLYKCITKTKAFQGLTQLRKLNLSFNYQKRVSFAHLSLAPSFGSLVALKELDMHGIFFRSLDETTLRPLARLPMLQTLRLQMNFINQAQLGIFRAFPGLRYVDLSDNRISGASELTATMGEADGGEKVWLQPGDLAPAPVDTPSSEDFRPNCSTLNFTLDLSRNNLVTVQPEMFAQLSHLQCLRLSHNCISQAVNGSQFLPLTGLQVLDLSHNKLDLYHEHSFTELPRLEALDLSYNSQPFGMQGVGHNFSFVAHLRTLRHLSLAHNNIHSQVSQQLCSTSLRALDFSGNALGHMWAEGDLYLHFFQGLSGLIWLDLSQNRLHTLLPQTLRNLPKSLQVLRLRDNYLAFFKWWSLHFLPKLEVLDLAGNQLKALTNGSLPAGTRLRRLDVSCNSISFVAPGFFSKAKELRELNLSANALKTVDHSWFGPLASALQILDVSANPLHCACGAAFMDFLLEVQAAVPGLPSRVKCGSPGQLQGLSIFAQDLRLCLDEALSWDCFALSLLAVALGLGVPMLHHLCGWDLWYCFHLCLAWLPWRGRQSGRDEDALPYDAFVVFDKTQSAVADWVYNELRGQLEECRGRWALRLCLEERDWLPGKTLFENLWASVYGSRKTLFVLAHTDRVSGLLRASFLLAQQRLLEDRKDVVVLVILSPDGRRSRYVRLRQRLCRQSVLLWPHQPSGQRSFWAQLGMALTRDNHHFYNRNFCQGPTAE
How it was run: (§1)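 HEK-Blue cells with NF-κB/AP-1-driven SEAP pre-treated 30 min with compound (0.05 nM–50 μM), then stimulated with gardiquimod 7.5 μM (TLR7), R848 15.9 μM (TLR8) or ODN2006 5 nM (TLR9). SEAP detected after 22 h at 37 °C; percent inhibition relative to agonist-plus-DMSO and known-inhibitor wells.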

human TLR7 = target: T2, human TLR7 (Homo sapiens, UniProt Q9NYK1); assay: TLR7 inhibition reporter assay (HEK-Blue cells, SEAP reporter); details: HEK-Blue cells overexpressing human TLR7; stimulated with gardiquimod 7.5 μM; 22 hour incubation; SEAP readout
T2 sequence (Q9NYK1 27-1049): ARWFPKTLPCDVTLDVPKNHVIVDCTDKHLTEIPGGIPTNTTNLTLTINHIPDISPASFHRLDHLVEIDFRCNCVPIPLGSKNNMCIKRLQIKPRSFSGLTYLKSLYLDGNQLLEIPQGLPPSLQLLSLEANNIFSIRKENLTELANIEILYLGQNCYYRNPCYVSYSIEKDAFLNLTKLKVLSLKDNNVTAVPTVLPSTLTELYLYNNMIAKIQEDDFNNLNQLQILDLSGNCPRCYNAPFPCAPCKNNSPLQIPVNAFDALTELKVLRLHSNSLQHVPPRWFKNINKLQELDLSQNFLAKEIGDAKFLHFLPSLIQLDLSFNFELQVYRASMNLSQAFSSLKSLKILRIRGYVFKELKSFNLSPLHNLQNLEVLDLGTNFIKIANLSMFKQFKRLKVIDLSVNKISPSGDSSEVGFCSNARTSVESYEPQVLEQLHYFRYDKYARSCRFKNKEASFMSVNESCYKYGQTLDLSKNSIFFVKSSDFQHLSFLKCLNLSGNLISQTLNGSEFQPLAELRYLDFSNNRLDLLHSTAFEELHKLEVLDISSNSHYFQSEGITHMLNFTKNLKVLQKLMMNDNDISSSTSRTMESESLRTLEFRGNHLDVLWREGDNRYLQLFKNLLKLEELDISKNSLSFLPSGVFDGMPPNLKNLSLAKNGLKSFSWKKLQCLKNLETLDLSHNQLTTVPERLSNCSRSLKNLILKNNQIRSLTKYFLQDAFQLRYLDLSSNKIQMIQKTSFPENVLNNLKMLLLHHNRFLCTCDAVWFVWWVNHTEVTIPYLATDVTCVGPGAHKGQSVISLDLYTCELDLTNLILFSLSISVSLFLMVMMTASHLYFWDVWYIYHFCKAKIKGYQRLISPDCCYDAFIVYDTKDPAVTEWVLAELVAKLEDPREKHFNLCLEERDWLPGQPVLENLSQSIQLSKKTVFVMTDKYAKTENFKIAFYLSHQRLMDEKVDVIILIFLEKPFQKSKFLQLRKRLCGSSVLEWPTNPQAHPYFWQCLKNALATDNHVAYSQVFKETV
How it was run: as §1

human TLR8 = target: T3, human TLR8 (Homo sapiens, UniProt Q9NR97); assay: TLR8 inhibition reporter assay (HEK-Blue cells, SEAP reporter); details: HEK-Blue cells overexpressing human TLR8; stimulated with R848 15.9 μM; 22 hour incubation; SEAP readout
T3 sequence (Q9NR97 27-1041): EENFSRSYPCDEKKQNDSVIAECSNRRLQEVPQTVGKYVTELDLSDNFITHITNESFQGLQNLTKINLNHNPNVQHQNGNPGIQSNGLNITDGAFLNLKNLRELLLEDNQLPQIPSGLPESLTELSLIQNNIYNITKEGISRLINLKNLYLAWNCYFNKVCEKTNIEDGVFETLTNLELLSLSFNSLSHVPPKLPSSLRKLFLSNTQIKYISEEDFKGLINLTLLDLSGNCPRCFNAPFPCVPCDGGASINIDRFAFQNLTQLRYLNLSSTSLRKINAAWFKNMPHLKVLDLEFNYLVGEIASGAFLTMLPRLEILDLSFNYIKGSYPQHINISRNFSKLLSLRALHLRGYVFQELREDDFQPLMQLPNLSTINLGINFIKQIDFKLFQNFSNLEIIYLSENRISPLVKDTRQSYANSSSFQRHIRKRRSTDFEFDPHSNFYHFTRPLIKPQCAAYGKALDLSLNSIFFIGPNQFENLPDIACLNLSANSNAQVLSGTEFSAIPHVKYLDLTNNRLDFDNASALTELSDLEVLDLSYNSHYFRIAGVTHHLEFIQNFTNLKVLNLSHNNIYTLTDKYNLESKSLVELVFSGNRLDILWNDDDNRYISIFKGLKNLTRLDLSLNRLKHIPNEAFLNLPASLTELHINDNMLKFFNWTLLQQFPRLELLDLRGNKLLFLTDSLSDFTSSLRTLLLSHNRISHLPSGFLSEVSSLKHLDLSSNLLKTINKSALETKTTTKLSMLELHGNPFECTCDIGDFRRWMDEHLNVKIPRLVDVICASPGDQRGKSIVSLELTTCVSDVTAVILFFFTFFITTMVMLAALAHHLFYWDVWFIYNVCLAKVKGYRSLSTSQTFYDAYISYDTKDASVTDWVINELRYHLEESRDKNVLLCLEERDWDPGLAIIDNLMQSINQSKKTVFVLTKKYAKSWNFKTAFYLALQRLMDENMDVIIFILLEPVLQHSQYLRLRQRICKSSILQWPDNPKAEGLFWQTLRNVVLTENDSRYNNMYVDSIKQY
How it was run: as §1

pIC50 (human TLR9) | pIC50 (human TLR7) | pIC50 (human TLR8) | Structure (SMILES)
6.52 | 5.40 | < 4.30 | CC(C)N1CCC(N2CCC(c3ccn4cc(-c5ccc(S(C)(=O)=O)cc5)nc4c3F)CC2)CC1 [Example 132, 8-fluoro-7-(1′-isopropyl-[1,4′-bipiperidin]-4-yl)-2-(4-(methylsulfonyl)phenyl) imidazo[1,2-a]pyridine]
8.22 | 5.72 | < 4.30 | CS(=O)(=O)c1ccc(-c2cn3ccc(C4CCN(C5CCN(C6CCOCC6)CC5)CC4)c(F)c3n2)cc1 [Example 133, 8-fluoro-2-(4-(methylsulfonyl)phenyl)-7-(1′-(tetrahydro-2H-pyran-4-yl)-[1,4′-bipiperidin]-4-yl)imidazo[1,2-a]pyridine]
6.45 | < 4.30 | < 4.30 | COc1ccc(-c2nc3n(n2)CC(c2ccc(N4CC5CCC(C4)N5C(C)C)cc2)CC3C)cc1OC (stereo not drawn) [Example 152, 2-(3,4-dimethoxyphenyl)-6-(4-(8-isopropyl-3,8-diazabicyclo[3.2.1]octan-3-yl)phenyl)-8-methyl-5,6,7,8-tetrahydro-[1,2,4]triazolo[1,5-a]pyridine]
7.10 | 5.16 | < 4.30 | Cc1cc(C2CCN(C3CCN(C(C)C)CC3)CC2)cn2nc(-c3ccc(S(C)(=O)=O)cc3)nc12 [Example 162, 6-(1′-isopropyl-[1,4′-bipiperidin]-4-yl)-8-methyl-2-(4-(methylsulfonyl)phenyl)-[1,2,4]triazolo[1,5-a]pyridine]
7.47 | < 4.30 | < 4.30 | Cc1cc(C2CCN(C3CCN(CC(C)C)CC3)CC2)cn2nc(-c3ccc(S(C)(=O)=O)cc3)nc12 [Example 163, 6-(1′-isobutyl-[1,4′-bipiperidin]-4-yl)-8-methyl-2-(4-(methylsulfonyl)phenyl)-[1,2,4]triazolo[1,5-a]pyridine]

Structure (SMILES) | pIC50 (human TLR9) | pIC50 (human TLR7) | pIC50 (human TLR8)
Cc1cc(C2CC3CCC(C2)N3C2CCN(C(C)C)CC2)cn2nc(-c3ccc(S(C)(=O)=O)cc3)nc12 (stereo not drawn) [Example 160, 6-(8-(1-isopropylpiperidin-4-yl)-8-azabicyclo[3.2.1]octan-3-yl)-8-methyl-2-(4-(methylsulfonyl)phenyl)-[1,2,4]triazolo[1,5-a]pyridine] | 7.36 | 5.16 | < 4.30
